Measured values: patent publication US12016831B2, “Polidocanol for use as immunomodulating agent” (priority 2018, dated 2024)

Tests used:
Assay type in all cases: in vivo, human
[1] = test system: patients suffering from venous insufficiency from minor to severe; assay: QoL survey (CIVIQ-20) after 3 or 4 treatments with diluted polidocanol
Experimental: A commercially available polidocanol solution (Atossisclerol®) was diluted to 0.05% with a physiological saline solution. A 1.4% sodium bicarbonate solution was then added in order to obtain a final concentration of 0.06%. The patients, 80% of which were female between 18 and 82 years of age suffering from venous insufficiency from minor to severe, were subjected to treatment after obtaining their free and informed consent.
Before the treatment, about 100 patients were subjected to a survey in order to assess their quality of life and to evaluate possible variations of the phlogistic/inflammatory overall state, of the venous microcirculation and circulation functionality, and also, more in general, of the skin trophism.
The long term systemic effects were evaluated via a survey given to patients after 3 or 4 treatments with diluted polidocanol.
In particular, they were asked to fill out a survey (CIVIQ-20) according to the criteria defined in Launois R. et al “Construction and validation of a quality of life questionnaire in chronic lower limb venous insufficiency (CIVIQ), Qual. Life Res., 1996, 5(6):539-554.
The survey contained the questions summarized hereinbelow, with answers indexed with values from 0 to 4 (0 if the feeling of discomfort described by the question was not applicable and from 1 to 4 if it was applicable with increasing intensity). Hereinbelow are collected the activities which turned out to be improved after the treatment: • 1) During the last 4 weeks have you felt pain in the hips or legs and with what intensity? In 14% of cases a decrease in hip pain was observed after treatment with polidocanol according to the invention. • 2) During the last 4 weeks have you had troubles in the routine work activities, due to troubles with the lower limbs? In 75% cases the patients could note a better condition during routine work activity • 3) During the last 4 weeks have you had troubles sleeping due to troubles with your legs? With what frequency? 37% better sleeping conditions. No troubles. • 4) During the last 4 weeks have you had troubles in the following activities due to troubles with your legs? • a. Remaining standing for a long time. Improves in 87% • b. Climbing several flights of stairs. • c. Crouching kneeling down. Improves • d. Walking at a brisk pace. • e. Traveling by car, bus, plane. Improves in 85% • f. Performing housekeeping tasks (ironing, walking around in the kitchen, etc.). Improves in 85% • g. Going out at night. Improves in 85% • h. Playing sports • 5) Given that troubles with the legs can also affect moods, it was asked if during the last 4 weeks they had noticed troubles such as: • a. Nervousness • b. Quick fatigue • c. Feeling of oppression • d. Excessive caution • e. Embarrassment in showing off the legs. Improves in 90% • f. Irritability • g. Feeling of being handicapped • h. Morning fatigue. Improves in 95% • i. Not feeling like going out. Improves in 75%.

[2] = test system: patients suffering from venous insufficiency from minor to severe; assay: Likert survey on the "inflammatory" state in treated subjects
Experimental: A commercially available polidocanol solution (Atossisclerol®) was diluted to 0.05% with a physiological saline solution. A 1.4% sodium bicarbonate solution was then added in order to obtain a final concentration of 0.06%. […] To the questions on the quality of life, 10 more specific questions were added in order to assess possible variations of the “inflammatory” state (n=100 patients) after the treatment. The survey was based on the indications of: “Evaluation by Likert-type scale 4-point (0-absent, 1-moderate, 2-severe and 3-very severe)” Elleuch et al. Adv Ther. 2016 September; 33(9):1536-49. […] The survey was tailored on the Likert scale and aimed at evaluating the reduction of a number of symptoms related to chronic phlogosis, such as arthrosic or arthritis manifestations (both generic and autoimmune) with particular reference to articular mobility and pain, in subjects not suffering from full-blown diseases and apparently normal. The answers were indexed according to a scale from 0 to 3 (or from 0 to 2). Table 1 summarizes the percent individuals reporting an improvement of 50% after 4 or 15 treatments according to the invention, by self-assessment according to the Liked scale described above, for each of the following sign or symptom: […]

subject with psoriasis = assay: Skin rashes in a subject with psoriasis after a single treatment; conditions: pictures at T=0 and after 30 days (FIG. 3)
Experimental: FIG. 3. Treatment of peripheral venous insufficiency in a subject with psoriasis. The subject was treated with a single dose of diluted polidocanol 0.1%. Pictures were taken at T=0 (panel A) and after 30 days (panel B).

[3] = % of patients, n=100, after at least 4-5 treatments
[4] = after several treatments (12-14)
[5] = compared to the previous year, n=100
[6] = up to 2 months after the treatment, n=100

## Polidocanol [diluted polidocanol]
[1]; CIVIQ-20 question 1, after 3 or 4 treatments
  cases with decrease in hip pain: 14%
[1]; CIVIQ-20 question 2
  cases with better condition during routine work activity: 75%
[1]; CIVIQ-20 question 3
  better sleeping conditions: 37%
[1]; CIVIQ-20 question 4a
  Remaining standing for a long time, improves: 87%
[1]; CIVIQ-20 question 4c
  Crouching kneeling down: Improves
[1]; CIVIQ-20 question 4e
  Traveling by car, bus, plane, improves: 85%
[1]; CIVIQ-20 question 4f
  Performing housekeeping tasks, improves: 85%
[1]; CIVIQ-20 question 4g
  Going out at night, improves: 85%
[1]; CIVIQ-20 question 5e
  Embarrassment in showing off the legs, improves: 90%
[1]; CIVIQ-20 question 5i
  Not feeling like going out, improves: 75%
[1]; CIVIQ-20 question 5h
  Morning fatigue, improves: 95%
[1]; answers after vs before treatment
  cases with improved quality of life overall: 87%
[2]; 4 treatments, 100 individuals
  1. Articular mobility, % individuals reporting an improvement of 50%: 78%
  2. Reduction of pain, % individuals reporting improvement: 68%
  3. Reduction of symptoms, % individuals reporting improvement: 30%
  4. Skin trophism, % individuals reporting improvement: 87%
  5. Hair, % individuals reporting improvement: 90%
  6. Reduction of infections, % individuals reporting improvement: 70%
  7. Feeing of wellness, % individuals reporting improvement: 30%
  8. Feeling of lightness (lower limbs), % individuals reporting improvement: 70%
  9. Improvement of "cellulitis", % individuals reporting improvement: 54%
  10. Improvement of sleep-wake rythm, % individuals reporting improvement: 30%
  Don't feel stopping treatment, % individuals: 26%
[2]; 15 treatments, 200 individuals
  1. Articular mobility, % individuals reporting an improvement of 50%: 90%
  2. Reduction of pain, % individuals reporting improvement: 82%
  3. Reduction of symptoms, % individuals reporting improvement: 60%
  4. Skin trophism, % individuals reporting improvement: 98%
  5. Hair, % individuals reporting improvement: 95%
  6. Reduction of infections, % individuals reporting improvement: 85%
  7. Feeing of wellness, % individuals reporting improvement: 70%
  8. Feeling of lightness (lower limbs), % individuals reporting improvement: 98%
  9. Improvement of "cellulitis", % individuals reporting improvement: 86%
  10. Improvement of sleep-wake rythm, % individuals reporting improvement: 56%
  Don't feel stopping treatment, % individuals: 56%
[2]; % of patients, n=100
  Feeling of lightness in the lower limbs, 0: no variations: 2%
  Feeling of lightness in the lower limbs, 1: lighter limbs: 70%
  Feeling of lightness in the lower limbs, 2: lighter limbs and no oedema in the evenings: 28%
  Improvement of "cellulitis", 1: lighter limbs: 54%
  Improvement of "cellulitis", 2: lighter limbs and no oedema in the evenings: 36%
  Improvement of skin trophism, 0: no variations: 5%
  Improvement of the hair trophism, results positive: 90%
  Improvement of the sleep-wake rhythm, 0: no variations: 63%
  Improvement of the sleep-wake rhythm, 1: I don't know: maybe: 30%
  Improvement of the sleep-wake rhythm, 2: I'm sleeping better and wake-up more rested: 7%
  Improvement of the so-called "cellulitis", 0: no variations: 10%
  Reduction of pain related to chronic inflammatory events, 0: no variations: 20%
  Reduction of pain, 1: 20% reduction of pain-related symptoms: 12%
  Reduction of pain, 2: 50% reduction of pain-related symptoms: 68%
  Reduction of pain, 3: 70% reduction of pain-related symptoms: 0%
  Skin trophism, 1: slight improvement of the skin elasticity and of the trophism at the touch in the lower limbs: 87%
  Skin trophism, 2: slight improvement of the skin elasticity and of the trophism at the touch in the whole body: 60%
  Skin trophism, 3: improvement extended to the skin of the face: 16%
[2]; [3]
  Articular mobility, 0: no variations: 13%
  Articular mobility, 1: 20% mobility improvement: 7%
  Articular mobility, 2: 50% mobility improvement: 78%
  Articular mobility, 3: 70% mobility improvement: 2%
[2]; [4]
  cases with improved skin elasticity and smoother skin also in the face: 16%
  cases with improved skin elasticity and smoother skin in general: 60%
[2]; [5]
  Reduction of infective events, 0: no variations: 18%
  Reduction of infective events, 1: maybe less infective events: 12%
  Reduction of infective events, 2: definitely significant reduction: 70%
[2]; number of patients, n=12
  Reduction of symptoms, 1: 20% attenuation of manifestations related to skin and articular mobility: 5 N.
  Reduction of symptoms, 2: 50% attenuation of manifestations related to skin and articular mobility: 4 N.
  Reduction of symptoms, 3: 70% attenuation of manifestations related to skin and articular mobility: 1 N.
[2]; number of patients, n=12 (e.g. psoriasis, rheumatoid arthritis)
  Reduction of symptoms of chronic degenerative pathologies of immune and inflammatory genesis, 0: no variations: 2 N.
[2]; [6]
  Feeling of well-being, 0: no variations: 12%
  Feeling of well-being, 1: I feel a bit better but I don't know: 32%
  Feeling of well-being, 2: I feel a bit better in the sense that I have a feeling of well-being: 30%
  Feeling of well-being, 3: life without the treatment is not the same, I feel the need to undergo treatment: 26%
Subject with psoriasis
  skin rashes in a subject with psoriasis: improve visibly the skin rashes
